# From patent publication US9801901B2, “Alginate oligomers for use in overcoming multidrug resistance in bacteria” (priority 2009, dated 2017)
# Read-outs that look alike come from different tables or passages of the source. Marks after values point to notes of the source that are not given here.
# How the values were obtained:
# [1] = system: Pseudomonas aeruginosa ATCC 39324, mucoid type strain (R79); experiment: MIC assay, CAMHB with alginate oligomer, no visible growth; assay type: cell-based; conditions: Pseudomonas aeruginosa, ATCC39324, Table 1, R79, read-out: MIC
# [2] = system: Pseudomonas aeruginosa MDR R22 from China (V1); experiment: as above; assay type: cell-based; conditions: for MIC: Pseudomonas aeruginosa, Table 1, V1 MDR R22 PA, read-out: MIC
# Text: The study described in Example 1 was repeated with the following strains of bacteria and antibiotics as detailed in Tables 4, 5 and 6.
# [3] = system: Pseudomonas aeruginosa CFA 24-1, clinical mucoid strain (R80); experiment: as above; assay type: cell-based; conditions: Pseudomonas aeruginosa, Table 1, R80, read-out: MIC
# [4] = system: V23 1322 Burkholderia cepacia; experiment: as above; assay type: cell-based
# [5] = system: Acinetobacter baumannii (MDR ACB, Libya, V4); experiment: MIC-assay, Mueller-Hinton broth with G-block alginate, 384-well, OD600
# [6] = system: Burkholderia cepacia (1322, V23); experiment: as above
# MDR Pseudomonas strains = experiment: MIC assay of Example 1, summary over the MDR Pseudomonas strains; assay type: cell-based, Pseudomonas aeruginosa
# [7] = system: Klebsiella pneumoniae KP05 506 from India (V3); experiment: MIC assay, CAMHB with alginate oligomer, no visible growth; assay type: cell-based; conditions: for MIC: Klebsiella pneumoniae, Table 1, V3 KP05 506, read-out: MIC
# [8] = system: PA01 Pseudomonas aeruginosa ATCC 15692; experiment: MIC assay, two-fold antibiotic dilutions in CAMHB with alginate oligomer, no visible growth; assay type: cell-based; conditions: Pseudomonas aeruginosa, ATCC15692, Table 1, PA01, read-out: MIC
# [9] = system: V19 non MDR Acinetobacter baumannii; experiment: MIC assay, CAMHB with M-block alginate oligomer, no visible growth; assay type: cell-based; conditions: Table 7, V19 non MDR Acin. baum
# Text: The study described in Example 1 was repeated with the following strains of Acinetobacter baumannii, antibiotics and M-block alginate oligomer in place of OligoG CF-5/20 as detailed in Table 7. The M-block oligomer is 100% M with a DPn of 15 to 18,
# [10] = system: V9 (Egypt) Acinetobacter baumannii; experiment: MIC assay, CAMHB with alginate oligomer, no visible growth; assay type: cell-based; conditions: Table 5, V9 MDR Acin. baum
# [11] = system: Burkholderia cepacia (LMG18941, ATCC-BAA-246); experiment: MIC-assay, Mueller-Hinton broth with G-block alginate, 384-well, OD600
# [12] = system: V12 5725 (Wales) Klebsiella pneumoniae; experiment: MIC assay, CAMHB with alginate oligomer, no visible growth; assay type: cell-based; conditions: Table 5, V12 MDR Kleb pneu
# [13] = Burkholderia cepacia, Table 5, V23 MDR Burk cep, OligoCF-5/20 0G, read-out: MIC
# [14] = Table 5, V23 MDR Burk cep, OligoCF-5/20 +2% G
# [15] = Table 5, V23 MDR Burk cep, OligoCF-5/20 +6% G
# [16] = Table 5, V23 MDR Burk cep, OligoCF-5/20 +10% G
# [17] = Table 9, G-block (OligoCF-5/20) 0%
# [18] = Table 9, G-block (OligoCF-5/20) 2%
# [19] = Table 9, G-block (OligoCF-5/20) 6%
# [20] = Table 9, G-block (OligoCF-5/20) 10%
# [21] = Table 8, G-block (OligoCF-5/20) 0%
# [22] = Table 8, G-block (OligoCF-5/20) 2%
# [23] = Table 8, G-block (OligoCF-5/20) 6%
# [24] = Table 8, G-block (OligoCF-5/20) 10%
# [25] = ATCCBAA246|LMG18941, Table 8, G-block (OligoCF-5/20) 0%
# [26] = ATCCBAA246|LMG18941, Table 8, G-block (OligoCF-5/20) 2%
# [27] = ATCCBAA246|LMG18941, Table 8, G-block (OligoCF-5/20) 6%
# [28] = ATCCBAA246|LMG18941, Table 8, G-block (OligoCF-5/20) 10%
# [29] = Klebsiella pneumoniae, OligoCF-5/20 0G, read-out: MIC
smiles,measurement,setting,value
C[C@H]1[C@H](NC(=O)/C(=N\OC(C)(C)C(=O)O)c2csc(N)n2)C(=O)N1S(=O)(=O)O [Aztreonam],MIC,[1]; OligoCF-5/20 0G,2 µg/mL
same,MIC,[1]; OligoCF-5/20 +2% G,2 µg/mL
same,MIC,[1]; OligoCF-5/20 +6% G,< 1 µg/mL
same,MIC,[1]; OligoCF-5/20 +10% G,< 1 µg/mL
same,MIC,[2]; OligoCF-5/20 0G,32 µg/mL
same,MIC,[2]; OligoCF-5/20 +2% G,16 µg/mL
same,MIC,[2]; OligoCF-5/20 +6% G,< 4 µg/mL
same,MIC,[2]; OligoCF-5/20 +10% G,< 4 µg/mL
same,MIC,[3]; OligoCF-5/20 0G,< 1 µg/mL
same,MIC,[3]; OligoCF-5/20 +2% G,< 1 µg/mL
same,MIC,[3]; OligoCF-5/20 +6% G,< 1 µg/mL
same,MIC,[3]; OligoCF-5/20 +10% G,< 1 µg/mL
same,MIC,[4]; [13],> 512 µg/mL
same,MIC,"[4]; Burkholderia cepacia, Table 6, V23, Experiment 1 (18-03-10), OligoCF-5/20 0G, read-out: MIC",> 4100 µg/mL
same,MIC,"[4]; Burkholderia cepacia, Table 6, V23, Experiment 2 (18-03-10), OligoCF-5/20 0G, read-out: MIC",> 4100 µg/mL
same,MIC,"[4]; Burkholderia cepacia, Table 6, V23, Experiment 3 (19-03-10), OligoCF-5/20 0G, read-out: MIC",> 4100 µg/mL
same,MIC,[4]; [14],>512 µg/mL
same,MIC,[4]; [15],512^† μg/ml
same,MIC,[4]; [16],128^† μg/ml
same,MIC,"[4]; Table 6, V23, Experiment 1 (18-03-10), OligoCF-5/20 +2% G",>4096 µg/mL
same,MIC,"[4]; Table 6, V23, Experiment 1 (18-03-10), OligoCF-5/20 +6% G",1024^† μg/ml
same,MIC,"[4]; Table 6, V23, Experiment 1 (18-03-10), OligoCF-5/20 +10% G",256^† μg/ml
same,MIC,"[4]; Table 6, V23, Experiment 2 (18-03-10), OligoCF-5/20 +2% G",>4096 µg/mL
same,MIC,"[4]; Table 6, V23, Experiment 2 (18-03-10), OligoCF-5/20 +6% G",1024^† μg/ml
same,MIC,"[4]; Table 6, V23, Experiment 2 (18-03-10), OligoCF-5/20 +10% G",512^† μg/ml
same,MIC,"[4]; Table 6, V23, Experiment 3 (19-03-10), OligoCF-5/20 +2% G",>4096 µg/mL
same,MIC,"[4]; Table 6, V23, Experiment 3 (19-03-10), OligoCF-5/20 +6% G",1024^† μg/ml
same,MIC,"[4]; Table 6, V23, Experiment 3 (19-03-10), OligoCF-5/20 +10% G",128^† μg/ml
same,MIC,[5]; [17],4 µg/mL
same,MIC,[5]; [18],4 µg/mL
same,MIC,[5]; [19],1 µg/mL
same,MIC,[5]; [20],0.5 µg/mL
same,MIC,[6]; [21],> 16 µg/mL
same,MIC,[6]; [22],> 16 µg/mL
same,MIC,[6]; [23],> 16 µg/mL
same,MIC,[6]; [24],> 16 µg/mL
same,effectiveness when used in combination with the alginate oligomers,MDR Pseudomonas strains,more effective
same,effectiveness in conjunction with alginate oligomers,"[7]; Example 1, KP05 506",more effective
same,MIC,[7]; OligoCF-5/20 0G,2050 µg/mL
same,MIC,[7]; OligoCF-5/20 +2% G,2050 µg/mL
same,MIC,[7]; OligoCF-5/20 +6% G,512 µg/mL
same,MIC,[7]; OligoCF-5/20 +10% G,256 µg/mL
same,MIC,[8]; OligoCF-5/20 0G,8 µg/mL
same,MIC,[8]; OligoCF-5/20 +2% G,16 µg/mL
same,MIC,[8]; OligoCF-5/20 +6% G,4 µg/mL
same,MIC,[8]; OligoCF-5/20 +10% G,2 µg/mL
same,MIC,[9]; M-block oligomer 0M,64 µg/mL
same,MIC,[9]; M-block oligomer +2% M,32 µg/mL
same,MIC,[9]; M-block oligomer +6% M,8 µg/mL
same,MIC,[9]; M-block oligomer +10% M,8 µg/mL
same,MIC,"[10]; Acinetobacter baumannii, OligoCF-5/20 0G, read-out: MIC",> 512 µg/mL
same,MIC,[10]; OligoCF-5/20 +2% G,512^† μg/ml
same,MIC,[10]; OligoCF-5/20 +6% G,256^† μg/ml
same,MIC,[10]; OligoCF-5/20 +10% G,128^† μg/ml
same,MIC,[11]; [25],> 16 µg/mL
same,MIC,[11]; [26],> 16 µg/mL
same,MIC,[11]; [27],> 16 µg/mL
same,MIC,[11]; [28],> 16 µg/mL
same,MIC,[12]; [29],256 µg/mL
same,MIC,[12]; OligoCF-5/20 +2% G,512^‡ μg/ml
same,MIC,[12]; OligoCF-5/20 +6% G,128^† μg/ml
same,MIC,[12]; OligoCF-5/20 +10% G,64^† μg/ml
O=C(O)c1cn(C2CC2)c2cc(N3CCNCC3)c(F)cc2c1=O [Ciprofloxacin],MIC,[1]; OligoCF-5/20 +2% G,0.0625 µg/mL
same,MIC,[1]; OligoCF-5/20 +6% G,0.0312 µg/mL
same,MIC,[1]; OligoCF-5/20 +10% G,0.0312 µg/mL
same,MIC,[2]; OligoCF-5/20 0G,16 µg/mL
same,MIC,[2]; OligoCF-5/20 +2% G,16 µg/mL
same,MIC,[2]; OligoCF-5/20 +6% G,8 µg/mL
same,MIC,[2]; OligoCF-5/20 +10% G,4 µg/mL
same,change of MIC in combination with azithromycin by alginate oligomer,"[2]; Table 3, MDR R22 PA strain",reduced
same,MIC,[4]; [13],64 µg/mL
same,MIC,[4]; [14],64 µg/mL
same,MIC,[4]; [15],64 µg/mL
same,MIC,[4]; [16],32^† μg/ml
same,MIC,[5]; [17],4 µg/mL
same,MIC,[5]; [18],1 µg/mL
same,MIC,[5]; [19],1 µg/mL
same,MIC,[5]; [20],0.5 µg/mL
same,MIC,[6]; [21],> 8 µg/mL
same,MIC,[6]; [22],> 8 µg/mL
same,MIC,[6]; [23],> 8 µg/mL
same,MIC,[6]; [24],> 8 µg/mL
same,effectiveness when used in combination with the alginate oligomers,MDR Pseudomonas strains,more effective
same,MIC,[8]; OligoCF-5/20 +2% G,0.0625 µg/mL
same,MIC,[8]; OligoCF-5/20 +6% G,0.0625 µg/mL
same,MIC,[8]; OligoCF-5/20 +10% G,0.0312 µg/mL
same,MIC,[9]; M-block oligomer 0M,64 µg/mL
same,MIC,[9]; M-block oligomer +2% M,32 µg/mL
same,MIC,[9]; M-block oligomer +6% M,16 µg/mL
same,MIC,[10]; OligoCF-5/20 0G,-64^† μg/ml
same,MIC,[10]; OligoCF-5/20 +2% G,32^† μg/ml
same,MIC,[10]; OligoCF-5/20 +6% G,32^† μg/ml
same,MIC,[10]; OligoCF-5/20 +10% G,32^† μg/ml
same,MIC,[11]; [25],> 8 µg/mL
same,MIC,[11]; [26],> 8 µg/mL
same,MIC,[11]; [27],> 8 µg/mL
same,MIC,[11]; [28],> 8 µg/mL
same,MIC,[12]; [29],64 µg/mL
same,MIC,[12]; OligoCF-5/20 +2% G,64 µg/mL
same,MIC,[12]; OligoCF-5/20 +6% G,256^‡ μg/ml
same,MIC,[12]; OligoCF-5/20 +10% G,256^‡ μg/ml
